The text below walks through data of ChEMBL document CHEMBL1201862, “PubChem BioAssay data set” (2004).

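Grown in 96-well plates, cells were treated for 48 hours with each compound at five concentrations. Insufficient inhibition: endpoint recorded as highest concentration tested. GI50: concentration for 50% inhibition of growth.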 The source made the active and inactive calls. No stated cut-off is given here; in the data, active = GI50 up to about 1.1 µM and inactive = higher.

Among the test systems are ACHN; COLO 205; HCC 2998; HL-60; IGROV-1; KM12; LOX IMVI; M14; MDA-MB-231; MDA-MB-435; NCI-H23; NCI-H522; OVCAR-3; SF-295; SK-OV-3; SN12C; SR; SW-620; UACC-257; MDA-N.
Assay in all cases: inhibition of tumour cell growth, NCI panel, 48 h

Turning to `O=C1CN2C(c3ccccc3)=NN(c3ccc([N+](=O)[O-])cc3)C2(c2ccccc2)c2cc(Cl)ccc2N1CC1CC1` (stereo unspecified), the GI50 is > 100 µM (inactive) in the assay on ACHN; > 100 µM (inactive) in the assay with COLO 205; > 100 µM (inactive) with HCC 2998; < 0.01 µM (active) in the assay with HL-60; > 100 µM (inactive) in the assay with IGROV-1; > 100 µM (inactive) with KM12. The GI50 in the assay on LOX IMVI, in the assay on M14, with MDA-MB-231, in the assay with MDA-MB-435, with NCI-H23 and in the assay with NCI-H522 was > 100 µM (inactive) in each case. Also, the GI50 in the assay with OVCAR-3, in the assay on SF-295, in the assay on SK-OV-3, in the assay with SN12C, in the assay on SR and in the assay on SW-620 was > 100 µM (inactive) each time. For the same compound, the GI50 in the assay on UACC-257 was > 100 µM (inactive).

For `COC(=O)C1Cc2c([nH]c3ccccc23)C(c2ccccc2O)N1Cc1ccccc1` (stereo unspecified), the GI50 with ACHN was 28.4 µM (inactive); in the assay with COLO 205, 41.7 µM (inactive); in the assay on HCC 2998, > 31.6 µM (inactive); with HL-60 it was > 46.5 µM (inactive); in the assay on IGROV-1, 25.5 µM (inactive); with KM12 it was > 31.6 µM (inactive). Further, the GI50 is 44.9 µM (inactive) with LOX IMVI; 38.4 µM (inactive) in the assay with M14; 44.3 µM (inactive) with NCI-H23; 16.4 µM (inactive) with NCI-H522; 27.7 µM (inactive) in the assay on OVCAR-3; 21 µM (inactive) with SF-295. In addition, the GI50 in the assay with SK-OV-3 was 30.8 µM (inactive); with SN12C it was 36 µM (inactive); in the assay on SR, 28.4 µM (inactive); in the assay on SW-620, 39.5 µM (inactive); in the assay with UACC-257, 33.7 µM (inactive).

For the compound `CC(=O)C1Cn2c(nc3ccccc32)C[Se]1` (stereo unspecified), the GI50 was 3.39 µM (inactive) with ACHN; 16.5 µM (inactive) in the assay with COLO 205; 10.3 µM (inactive) with HCC 2998; 2.47 µM (inactive) in the assay with HL-60; 2.22 µM (inactive) in the assay on IGROV-1; 3.4 µM (inactive) in the assay with KM12. The GI50 in the assay on LOX IMVI was 4.29 µM (inactive); in the assay with M14 it was 2.3 µM (inactive); in the assay on NCI-H23, 2.75 µM (inactive); in the assay with NCI-H522, 3.28 µM (inactive); in the assay on OVCAR-3, 2.22 µM (inactive); in the assay with SF-295, 3.26 µM (inactive). For the same compound, the GI50 in the assay with SK-OV-3 was 19.5 µM (inactive); in the assay with SN12C it was 4.43 µM (inactive); in the assay on SR, 3.1 µM (inactive); in the assay with SW-620, 5.28 µM (inactive); with UACC-257, 2.48 µM (inactive).

With `CCC[C@H]1O[C@@H]2CC(=O)O[C@@H]2C2=C1C(=O)C=CC2=O`, the GI50 in the assay with ACHN is 13.1 µM (inactive); in the assay on COLO 205 it was 3.38 µM (inactive); with HCC 2998, > 43.1 µM (inactive); with HL-60, 5.7 µM (inactive); in the assay with IGROV-1 it was 18 µM (inactive); with KM12 it was 23.6 µM (inactive). The GI50 was 21 µM (inactive) with LOX IMVI; 18.7 µM (inactive) in the assay on M14; 13.6 µM (inactive) in the assay with NCI-H23; 2.2 µM (inactive) with NCI-H522; 14.1 µM (inactive) in the assay with OVCAR-3; 25.4 µM (inactive) with SF-295. The GI50 with SK-OV-3 is > 39.9 µM (inactive); in the assay with SN12C it was 18.1 µM (inactive); in the assay with SR it was 16.7 µM (inactive); in the assay on SW-620 it was 11.2 µM (inactive); in the assay on UACC-257 it was 18.9 µM (inactive).

Regarding `O=C(Cc1ccccc1)NN1C(=O)/C(=C\c2ccc([N+](=O)[O-])cc2)S/C1=N\c1ccccc1`, the GI50 in the assay with ACHN, with COLO 205, in the assay on HCC 2998, in the assay on IGROV-1, with KM12 and with M14 was > 100 µM (inactive) throughout. Besides, the GI50 with MDA-MB-231 is > 100 µM (inactive); in the assay with MDA-MB-435, > 100 µM (inactive); in the assay on NCI-H23, 68.5 µM (inactive); with OVCAR-3, 47.8 µM (inactive); in the assay with SF-295, > 100 µM (inactive); in the assay with SK-OV-3, > 100 µM (inactive). Besides, the GI50 in the assay on SN12C, with SW-620 and in the assay on UACC-257 was > 100 µM (inactive) each time.

As for `COc1cc(OC(=O)c2c(O)cc(O)c(O)c2C)cc(C)c1C(=O)Oc1cc(C)c(C(=O)O)c(O)c1`, the GI50 with ACHN, with COLO 205, in the assay on HCC 2998, in the assay with HL-60, in the assay with IGROV-1 and in the assay with KM12 was > 100 µM (inactive) throughout. Besides, the GI50 in the assay with LOX IMVI, with M14, in the assay on NCI-H23, in the assay with NCI-H522, in the assay with OVCAR-3 and with SF-295 was > 100 µM (inactive) throughout. Further, the GI50 in the assay with SK-OV-3, in the assay with SN12C, in the assay with SR, in the assay on SW-620 and with UACC-257 was > 100 µM (inactive) in each case.

Take `Oc1cn(-c2ccc(Cl)cc2)nc1-c1nnc(Nc2ccccc2)o1`: the GI50 in the assay with ACHN was 25.6 µM (inactive); in the assay with COLO 205 it was 21.4 µM (inactive); in the assay on IGROV-1, 15.2 µM (inactive); in the assay with KM12 it was 17.7 µM (inactive); with M14, 19.6 µM (inactive); in the assay with MDA-MB-231, 12.4 µM (inactive). Besides, the GI50 was 16.8 µM (inactive) in the assay with MDA-MB-435; 14.1 µM (inactive) in the assay with NCI-H23; 17.3 µM (inactive) in the assay with NCI-H522; 31.8 µM (inactive) in the assay with OVCAR-3; 18.9 µM (inactive) in the assay on SF-295; 24.3 µM (inactive) with SK-OV-3. Moreover, the GI50 in the assay with SN12C was 16.1 µM (inactive); in the assay with SW-620, 19.1 µM (inactive); with UACC-257, 21.3 µM (inactive).

Regarding `COc1ccc(C)cc1Nc1nnc(-c2ccc(N)cc2)s1`, the GI50 in the assay on ACHN was > 100 µM (inactive); in the assay on COLO 205, 80.5 µM (inactive); in the assay on HCC 2998, 44.7 µM (inactive); in the assay on HL-60, 32.7 µM (inactive); with IGROV-1, > 100 µM (inactive); in the assay on KM12 it was 46.2 µM (inactive). In addition, the GI50 in the assay on LOX IMVI is 39.4 µM (inactive); in the assay with M14, > 100 µM (inactive); with MDA-MB-435, 33.3 µM (inactive); with MDA-N it was 30.4 µM (inactive); in the assay on NCI-H23 it was 88.1 µM (inactive); in the assay with NCI-H522, 60.3 µM (inactive). In addition, the GI50 is 73.6 µM (inactive) in the assay with OVCAR-3; 43.4 µM (inactive) in the assay with SF-295; > 100 µM (inactive) in the assay with SK-OV-3; > 100 µM (inactive) in the assay with SN12C; 38.4 µM (inactive) in the assay on SR; 88.1 µM (inactive) in the assay on SW-620. Besides, the GI50 in the assay with UACC-257 is 81.1 µM (inactive).
